A value given as a limit tells only on which side of the number the result lay.

The term Ki denotes the dissociation constant of the complex between target and ligand, obtained from inhibition or displacement.

For one assay, the system named is human σ1 receptor and human μ-opioid receptor. Briefly: Human σ1 receptor and human μ-opioid receptor radioligand binding assays, reported on one dual scale. Also noted: key to μ and σ1 dual (binding expressed as Ki): +: Both Ki-μ and Ki-σ1>500 nM; ++: One Ki<500 nM while the other Ki is >=500 nM; +++: Both Ki-μ and Ki-σ1<500 nM; ++++: Both Ki-μ and Ki-σ1<100 nM. The note with it: combined class for both receptors; [3H](+)-pentazocine on transfected HEK-293 membranes (σ1), [3H]-DAMGO on transfected CHO-K1 membranes (μ). Here is the method:
Human σ1 Receptor Radioligand Assay
To investigate binding properties of test compounds to human σ1 receptor, transfected HEK-293 membranes and [^3H](+)-pentazocine (Perkin Elmer, NET-1056), as the radioligand, were used. The assay was carried out with 7 μg of membrane suspension, 5 nM of [^3H](+)-pentazocine in either absence or presence of either buffer or 10 μM Haloperidol for total and non-specific binding, respectively. Binding buffer contained Tris-HCl 50 mM at pH 8. Plates were incubated at 37° C. for 120 minutes. After the incubation period, the reaction mix was then transferred to MultiScreen HTS, FC plates (Millipore), filtered and plates were washed 3 times with ice-cold 10 mM Tris-HCL (pH7.4). Filters were dried and counted at approximately 40% efficiency in a MicroBeta scintillation counter (Perkin-Elmer) using EcoScint liquid scintillation cocktail
Human μ-Opioid Receptor Radioligand Assay
To investigate binding properties of test compounds to human μ-opioid receptor, transfected CHO-K1 cell membranes and [^3H]-DAMGO (Perkin Elmer, ES-542-C), as the radioligand, were used. The assay was carried out with 20 μg of membrane suspension, 1 nM of [^3H]-DAMGO in either absence or presence of either buffer or 10 μM Naloxone for total and non-specific binding, respectively. Binding buffer contained Tris-HCl 50 mM, MgCl2 5 mM at pH 7.4. Plates were incubated at 27° C. for 60 minutes. After the incubation period, the reaction mix was then transferred to MultiScreen HTS, FC plates (Millipore), filtered and plates were washed 3 times with ice-cold 10 mM Tris-HCL (pH 7.4). Filters were dried and counted at approximately 40% efficiency in a MicroBeta scintillation counter (Perkin-Elmer) using EcoScint liquid scintillation cocktail.
With `O=C1NCC2(CCN(Cc3ccccc3)CC2)c2ccccc21` [Example 1, 1′-Benzyl-2,3-dihydro-1H-spiro[isoquinoline-4,4′-piperidin]-1-one], the “μ and σ1 dual (binding expressed as Ki)” value is on record as “++”.
Consider `CN1CC2(CCN(Cc3ccccc3)CC2)c2ccccc2C1=O` [Example 2, 1′-Benzyl-2-methyl-2,3-dihydro-1H-spiro[isoquinoline-4,4′-piperidin]-1-one], for which the “μ and σ1 dual (binding expressed as Ki)” value is reported as “++”.
`CCN1CC2(CCN(Cc3ccccc3)CC2)c2ccccc2C1=O` [Example 3, 1′-Benzyl-2-ethyl-2,3-dihydro-1H-spiro[isoquinoline-4,4′-piperidin]-1-one]: the “μ and σ1 dual (binding expressed as Ki)” value was “++”.
Still for that read-out and setting: then `O=C1c2ccccc2C2(CCN(Cc3ccccc3)CC2)CN1CCO` [Example 7, 1′-Benzyl-2-(2-hydroxyethyl)-2,3-dihydro-1H-spiro[isoquinoline-4,4′-piperidin]-1-one], with “++”.
Take `CC(=O)N1Cc2ccccc2C2(CCN(CCc3ccccc3)CC2)C1` [Example 10, 1-(1′-Phenethyl-1H-spiro[isoquinoline-4,4′-piperidine]-2(3H)-yl)ethanone]: the “μ and σ1 dual (binding expressed as Ki)” value is recorded as “++”.
On to `O=C1c2ccccc2C2(CCN(CCc3ccccc3)CC2)CN1CCO` [Example 11, 2-(2-Hydroxyethyl)-1′-phenethyl-2,3-dihydro-1H-spiro[isoquinoline-4,4′-piperidin]-1-one], for which the “μ and σ1 dual (binding expressed as Ki)” value is “++”.

Staying with this assay, now noted: combined class for both receptors; [3H](+)-pentazocine on transfected HEK-293 membranes (σ1), [3H]-DAMGO on transfected CHO-K1 membranes (μ); read-out: μ and σ1 dual (binding expressed as Ki).
In the case of `O=C1NCC2(CCN(CCc3ccccc3)CC2)c2ccccc21` [Example 4, 1′-Phenethyl-2,3-dihydro-1H-spiro[isoquinoline-4,4′-piperidin]-1-one], the Ki is less than 500 nM.
On the same count and under the same terms, the value for `CN1CC2(CCN(CCc3ccccc3)CC2)c2ccccc2C1=O` [Example 5, 2-Methyl-1′-phenethyl-2,3-dihydro-1H-spiro[isoquinoline-4,4′-piperidin]-1-one] was less than 500 nM.
Take `CCN1CC2(CCN(CCc3ccccc3)CC2)c2ccccc2C1=O` [Example 6, 2-ethyl-1′-phenethyl-2,3-dihydro-1H-spiro[isoquinoline-4,4′-piperidin]-1-one]: the inhibitory constant (Ki) is less than 500 nM.
Consider `c1ccc(CCN2CCC3(CC2)CNCc2ccccc23)cc1` [Example 8, 1′-Phenethyl-2,3-dihydro-1H-spiro[isoquinoline-4,4′-piperidine]], for which the Ki is less than 500 nM.
On the same count and under the same terms, then `CN1Cc2ccccc2C2(CCN(CCc3ccccc3)CC2)C1` [Example 9, 2-Methyl-1′-phenethyl-2,3-dihydro-1H-spiro[isoquinoline-4,4′-piperidine]], with less than 500 nM.

The values are drawn from US10508114B2, “Spiro-isoquinoline-4,4′-piperidine compounds having multimodal activity against pain” (ESTEVE PHARMACEUTICALS, S.A., priority 2015, dated 2019).
